Assay results as given in ChEMBL document CHEMBL1201862, “PubChem BioAssay data set” (2004).
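96-well plates; 48 h exposure; 5 concentrations. Endpoints by linear interpolation between flanking doses. Not reached: highest tested concentration assigned. Abbreviation: GI50, concentration required for 50% inhibition of growth.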 Calls of active or inactive are those of the source. No stated cut-off is given here; in the data, active = GI50 up to about 1.1 µM and inactive = higher.

Legend:
Assay in all cases: growth of human tumour cells (NCI), 48 h
[1] = system: IGROV-1
[2] = system: HOP-62
[3] = system: UACC-257
[4] = system: SNB-78
[5] = system: SF-295
[6] = system: Malme-3M
[7] = system: SK-MEL-5
[8] = system: SF-539
[9] = system: SNB-75
[10] = system: SW-620
[11] = system: NCI/ADR-RES
[12] = system: UACC-62
[13] = system: NCI-H226
[14] = system: COLO 205
[15] = system: SK-OV-3
[16] = system: LOX IMVI
[17] = system: UO-31
[18] = system: M19-MEL
[19] = system: A549
[20] = system: SF-268
[21] = system: DLD-1
[22] = system: MCF7
[23] = system: NCI-H23
[24] = system: NCI-H460
[25] = system: HCT-116
[26] = system: OVCAR-5
[27] = system: SNB-19
[28] = system: CCRF-CEM
[29] = system: DMS-273
[30] = system: HCC 2998
[31] = system: CAKI-1
[32] = system: MOLT-4
[33] = system: U-251
[34] = system: SK-MEL-2
[35] = system: NCI-H522
[36] = system: HCT-15
[37] = system: DMS-114
[38] = system: A498
[39] = system: SK-MEL-28
[40] = system: RPMI-8226
[41] = system: SN12C
[42] = system: KM12
[43] = system: EKVX
[44] = system: KM-20L2
[45] = system: HL-60
[46] = system: HOP-92
[47] = system: OVCAR-4
[48] = system: RXF 393
[49] = system: HOP-18
[50] = system: OVCAR-3
[51] = system: OVCAR-8
[52] = system: HT-29
[53] = system: K562
[54] = system: 786-0
[55] = system: SR
[56] = system: TK-10
[57] = system: ACHN
[58] = system: LXFL 529
[59] = system: M14

Structure (SMILES): N/C(=N\O)N/N=C\c1c(O)cc(O)cc1O
- GI50 [1]: 44.5 µM (inactive)
- GI50 [2]: > 87.9 µM (inactive)
- GI50 [3]: 99.3 µM (inactive)
- GI50 [4]: > 100 µM (inactive)
- GI50 [5]: > 46.8 µM (inactive)
- GI50 [6]: > 100 µM (inactive)
- GI50 [7]: 50.6 µM (inactive)
- GI50 [8]: > 100 µM (inactive)
- GI50 [9]: > 47.6 µM (inactive)
- GI50 [10]: > 70.3 µM (inactive)
- GI50 [11]: 79.6 µM (inactive)
- GI50 [12]: 15.8 µM (inactive)
- GI50 [13]: 66.7 µM (inactive)
- GI50 [14]: > 72.9 µM (inactive)
- GI50 [15]: > 89.1 µM (inactive)
- GI50 [16]: 60.8 µM (inactive)
- GI50 [17]: 26 µM (inactive)
- GI50 [18]: > 71.8 µM (inactive)
- GI50 [19]: 45.1 µM (inactive)
- GI50 [20]: > 100 µM (inactive)
- GI50 [21]: > 82.8 µM (inactive)
- GI50 [22]: 36.4 µM (inactive)
- GI50 [23]: > 75 µM (inactive)
- GI50 [24]: 49.5 µM (inactive)
- GI50 [25]: > 94.2 µM (inactive)
- GI50 [26]: > 100 µM (inactive)
- GI50 [27]: 65.9 µM (inactive)
- GI50 [28]: 31.8 µM (inactive)
- GI50 [29]: 14.3 µM (inactive)
- GI50 [30]: 73.8 µM (inactive)
- GI50 [31]: > 100 µM (inactive)
- GI50 [32]: 39.8 µM (inactive)
- GI50 [33]: 41.6 µM (inactive)
- GI50 [34]: > 100 µM (inactive)
- GI50 [35]: 39.7 µM (inactive)
- GI50 [36]: 63.4 µM
- GI50 [37]: 44.2 µM (inactive)
- GI50 [38]: > 100 µM (inactive)
- GI50 [39]: > 100 µM (inactive)
- GI50 [40]: 15.6 µM (inactive)
- GI50 [41]: 78.7 µM (inactive)
- GI50 [42]: 36.4 µM (inactive)
- GI50 [43]: > 35.2 µM (inactive)
- GI50 [44]: > 100 µM (inactive)
- GI50 [45]: 26.1 µM (inactive)
- GI50 [46]: 54.8 µM (inactive)
- GI50 [47]: > 68.4 µM (inactive)
- GI50 [48]: > 100 µM (inactive)
- GI50 [49]: > 64 µM (inactive)
- GI50 [50]: > 65.9 µM (inactive)
- GI50 [51]: 39.4 µM (inactive)
- GI50 [52]: 93.8 µM (inactive)
- GI50 [53]: 29.2 µM (inactive)

Structure (SMILES): Cn1c(=O)c2nc3c4ccccc4c(=O)n(C)c3nc2n(C)c1=O
- GI50 [1]: > 100 µM (inactive)
- GI50 [3]: > 100 µM (inactive)
- GI50 [4]: > 100 µM (inactive)
- GI50 [5]: > 100 µM (inactive)
- GI50 [6]: > 100 µM (inactive)
- GI50 [7]: > 100 µM (inactive)
- GI50 [8]: > 100 µM (inactive)
- GI50 [9]: > 100 µM (inactive)
- GI50 [10]: > 100 µM (inactive)
- GI50 [12]: > 100 µM (inactive)
- GI50 [13]: > 100 µM (inactive)
- GI50 [14]: > 100 µM (inactive)
- GI50 [15]: > 100 µM (inactive)
- GI50 [54]: > 100 µM (inactive)
- GI50 [17]: > 100 µM (inactive)
- GI50 [18]: > 100 µM (inactive)
- GI50 [19]: > 100 µM (inactive)
- GI50 [20]: > 100 µM (inactive)
- GI50 [23]: > 100 µM (inactive)
- GI50 [55]: > 100 µM (inactive)
- GI50 [25]: > 100 µM (inactive)
- GI50 [26]: > 100 µM (inactive)
- GI50 [56]: > 100 µM (inactive)
- GI50 [57]: > 100 µM (inactive)
- GI50 [27]: > 100 µM (inactive)
- GI50 [30]: > 100 µM (inactive)
- GI50 [58]: > 100 µM (inactive)
- GI50 [32]: > 100 µM (inactive)
- GI50 [33]: > 100 µM (inactive)
- GI50 [34]: > 100 µM (inactive)
- GI50 [36]: > 100 µM
- GI50 [37]: > 100 µM (inactive)
- GI50 [39]: > 100 µM (inactive)
- GI50 [40]: > 100 µM (inactive)
- GI50 [41]: > 100 µM (inactive)
- GI50 [42]: > 100 µM (inactive)
- GI50 [43]: > 100 µM (inactive)
- GI50 [44]: > 100 µM (inactive)
- GI50 [46]: > 100 µM (inactive)
- GI50 [48]: > 100 µM (inactive)
- GI50 [50]: > 100 µM (inactive)
- GI50 [51]: > 100 µM (inactive)
- GI50 [52]: > 100 µM (inactive)
- GI50 [53]: > 100 µM (inactive)

Structure (SMILES): CC1=C[P+](Cc2ccccc2)(c2ccccc2)CC1 (stereo not drawn)
- GI50 [59]: 71.6 µM (inactive)
- GI50 [3]: 27.8 µM (inactive)
- GI50 [4]: > 100 µM (inactive)
- GI50 [5]: > 100 µM (inactive)
- GI50 [7]: 30.9 µM (inactive)
- GI50 [9]: 61.1 µM (inactive)
- GI50 [12]: 64.3 µM (inactive)
- GI50 [14]: 31.7 µM (inactive)
- GI50 [16]: 77.3 µM (inactive)
- GI50 [18]: 31.8 µM (inactive)
- GI50 [21]: > 100 µM (inactive)
- GI50 [23]: 97.1 µM (inactive)
- GI50 [55]: 74.3 µM (inactive)
- GI50 [29]: 80.9 µM (inactive)
- GI50 [58]: 37.7 µM (inactive)
- GI50 [34]: 78.7 µM (inactive)
- GI50 [35]: 67.5 µM (inactive)
- GI50 [37]: 28.6 µM (inactive)
- GI50 [40]: 24.1 µM (inactive)
- GI50 [42]: 85.3 µM (inactive)
- GI50 [43]: 80.2 µM (inactive)
- GI50 [45]: 30.1 µM (inactive)
- GI50 [47]: > 100 µM (inactive)
- GI50 [50]: 43.2 µM (inactive)
- GI50 [52]: 65.2 µM (inactive)
- GI50 [53]: 93.8 µM (inactive)
